Results taken from US7585939B2, “Chromatin peptides blocking human HIF-1α gene and modulating the downstream related genes” (Geneblue Corporation, priority 2005, dated 2009).
Where no end group is shown, it is not given here.

What was measured:
small cell lung cancer = assay: Treatment of patient with small cell lung cancer with micrometastasis to liver; assay type: in vivo, human patient; settings: 5 mg i.v. every 10 days
Experimental: Patient with small cell lung cancer, at middle and advanced stage, had micrometastasis to liver. […] Administer intravenous injection every 10 days, with 5 mg each time. 15 days later, dyspnoea and referred pain all vanished.

[1] = test system: human breast cancer cell line 0404 MDA-MB-435; assay: MDA-MB-435 human breast cancer animal model in BALB/c-nu nude mice; assay type: in vivo, BALB/c-nu female nude mice
Experimental: The experiment animals with tumor size of 100-200 MM^3 were randomized into four groups, at the 14th day after inoculation of cancer cells. There were 16 mice in each group, treated with different doses of low (0.5 mg/kg), medium (2 mg/kg), and high (5 mg/kg). The control group was treated with normal saline. Administer injection to the tumor surroundings every day after inoculation. The growth tumor volume was measured every 3 days. All experiment mice were killed at the 21st day; tumor growth rate was measured by volume and weight.

Breast cancer = assay: Treatment of breast cancer in dogs; assay type: in vivo; settings: 0.5 mg injected directly to the tumor every 15 days; 20th day
Experimental: Breast cancer were found in dogs, with tumor size of 45 mm×50 mm. NH2-Lys Arg Ala Ser Arg Asn Lys Ser Glu Lys Lys Arg Arg-COOH (SEQ ID NO: 20) was directly injected to the tumor, with 0.5 mg each time, and administration was given every 15 days.

[2] = test system: lung cancer existing carcinomatous metastasis to marrow; assay: Treatment of patient with lung cancer with metastasis to marrow; assay type: in vivo, human patient; settings: 2 mg i.v. every 5 days
Experimental: Patient with lung cancer existing carcinomatous metastasis to marrow conducted radiotherapy. […] Intravenous injections were given every 5 days, with a dose of 2 mg each time, and one month as a course of treatment. In addition, antibiotics were accompanied to control complicated infection.

[3] = test system: highly metastatic tumor HCT of human colon carcinoma cell line
Experimental: The highly metastatic tumor HCT of human colon carcinoma cell line was inoculated into the forelimb armpit of BALB/c-nu, a kind of female nude mouse, with amount of 5 million tumor cells/per mouse. Five days later, the area of tumor cells implanted was directly treated by injection with the above-mentioned 14 mer peptide solution, by a dose of 5 mg/kg daily. The drug treatment group and control (saline) group were set up, with 25 mice in each side. The experiment mice were killed after 21 days, measuring the tumor weight. After weighing the tumor taken from each mouse, keep it in 4% formaldehyde. Paraffin section shed paraffin for 10 minutes through xylene, then deal with alcohol, stain in hematoxylin, and then stains with 0.5% eosine ethanol. After that, mount with neutral gum. Analyze under microscope and take films.

[4] = with radiotherapy and antibiotics

With “NH2-Arg Lys Glu Lys Ser Arg Asp Ala Ala Arg Cys Arg Arg-COOH (H-RKEKSRDAARCRR-OH) [13mer peptide]” as the substance, how does the “microscopic repeated test of sputum” value (small cell lung cancer; 90th day) read?
Its value is “no malignant cells falling off”.

What about the biopsy (small cell lung cancer; 100th day) of the same substance?
Its biopsy is “no malignant cells”.

And the “dyspnoea and referred pain” value (small cell lung cancer; 15 days later)?
The value was “all vanished”.

Which results are given for “NH2-Arg Lys Glu Lys Ser Arg Asp Ala Ala Arg-COOH (H-RKEKSRDAAR-OH) [10 mer peptide]”?
breast cancer growth in the animal model ([1]; conclusion from Table 4): inhibit breast cancer growth; The volume of tumor sizes on average ([1]; high dose 5 mg/kg daily, 3rd day): 1.408 CM^3; The volume of tumor sizes on average ([1]; high dose 5 mg/kg daily, 7th day): 1.461 CM^3; The volume of tumor sizes on average ([1]; high dose 5 mg/kg daily, 10th day): 1.253 CM^3; The volume of tumor sizes on average ([1]; high dose 5 mg/kg daily, 14th day): 2.211 CM^3; The volume of tumor sizes on average ([1]; high dose 5 mg/kg daily, 17th day): 2.3635 CM^3; The volume of tumor sizes on average ([1]; high dose 5 mg/kg daily, 21st day): 1.793 CM^3; The volume of tumor sizes on average ([1]; low dose 0.5 mg/kg daily, 3rd day): 1.475 CM^3; The volume of tumor sizes on average ([1]; low dose 0.5 mg/kg daily, 7th day): 3.313 CM^3; The volume of tumor sizes on average ([1]; low dose 0.5 mg/kg daily, 10th day): 4.97 CM^3; The volume of tumor sizes on average ([1]; low dose 0.5 mg/kg daily, 14th day): 7.668 CM^3; The volume of tumor sizes on average ([1]; low dose 0.5 mg/kg daily, 17th day): 8.482 CM^3; The volume of tumor sizes on average ([1]; low dose 0.5 mg/kg daily, 21st day): 8.953 CM^3; The volume of tumor sizes on average ([1]; medium dose 2 mg/kg daily, 3rd day): 1.295 CM^3; The volume of tumor sizes on average ([1]; medium dose 2 mg/kg daily, 7th day): 2.133 CM^3; The volume of tumor sizes on average ([1]; medium dose 2 mg/kg daily, 10th day): 2.721 CM^3; The volume of tumor sizes on average ([1]; medium dose 2 mg/kg daily, 14th day): 4.879 CM^3; The volume of tumor sizes on average ([1]; medium dose 2 mg/kg daily, 17th day): 6.274 CM^3; The volume of tumor sizes on average ([1]; medium dose 2 mg/kg daily, 21st day): 6.119 CM^3

With “NH2-Lys Arg Ala Ser Arg Asn Lys Ser Glu Lys Lys Arg Arg-COOH (H-KRASRNKSEKKRR-OH) [SEQ ID NO: 20]” as the substance, how does the “tumor (size 45 mm×50 mm)” value (Breast cancer) read?
Its value is “Tumor disappeared”.

With RRKEKSRDAARSRR [14 mer peptide] as the substance, how does the cancer status ([2]; one month as a course) read?
The cancer status was “cancer free three months later”.

And the Skeleton ache symptom [2, 4]?
The Skeleton ache symptom was “decreased after five days”.

What about the osteodynia [2, 4] of the same substance?
Its osteodynia is “disappeared 20 days later”.

And the “experiment mice in the treatment group with tumors totally disappeared” value ([3]; 5 mg/kg daily injected at tumor area from day 5, killed after 21 days, 25 mice per group)?
The value was “four”.

And the “pathological section of tumor” value ([3]; 5 mg/kg daily, treatment group vs saline control, FIG. 1(A)/1(B))?
The value was “a lot of apoptotic bodies and cell debris were found in the central part of the tumor”.
